In EPA's CvTdb concentration-time database:

Columns and labels:
[1] = tested on: Rat; test: concentration in plasma after dosing
[2] = tested on: Rat; test: concentration in plasma after dosing; conditions: 5 min; dosed: Di-n-butyl phthalate; 100 mg/kg; oral; Male; Sprague-Dawley
[3] = tested on: Rat; test: concentration in liver after dosing; conditions: dosed: Perfluorodecanoic acid, 10 mg/kg, oral
[4] = tested on: Rat; test: concentration in brain after dosing; conditions: dosed: Perfluorodecanoic acid, 10 mg/kg, oral
[5] = tested on: Rat; test: concentration in kidney after dosing; conditions: dosed: Perfluorodecanoic acid, 10 mg/kg, oral

CCCCOC(=O)c1ccccc1C(=O)O [Mono-n-butyl phthalate]
[1], dosed: Di-n-butyl phthalate, Male, Sprague-Dawley
Conditions	concentration in plasma [µg/mL]
0.25 h, 100 mg/kg, oral	26.2
0.5 h, 50 mg/kg, oral	16.6
0.5 h, 100 mg/kg, oral	40.3
1 h, 20 mg/kg, iv	3.06
1 h, 50 mg/kg, oral	5.56
1 h, 100 mg/kg, oral	23.5
1.5 h, 20 mg/kg, iv	0.517
2 h, 20 mg/kg, iv	0.945
2 h, 50 mg/kg, oral	2.7
2 h, 100 mg/kg, oral	9.48
2 h, 200 mg/kg, oral	114
3 h, 20 mg/kg, iv	1.38
3 h, 50 mg/kg, oral	2.39
3 h, 100 mg/kg, oral	6.88
4 h, 20 mg/kg, iv	0.667
4 h, 100 mg/kg, oral	10
5 h, 20 mg/kg, iv	1.12
5 min, 20 mg/kg, iv	29.4
5 min, 50 mg/kg, oral	3.24
5 min, 100 mg/kg, oral	6.12
6 h, 20 mg/kg, iv	0.627
6 h, 50 mg/kg, oral	4.09
6 h, 100 mg/kg, oral	7.39
8 h, 20 mg/kg, iv	0.522
10 h, 50 mg/kg, oral	0.506
10 h, 100 mg/kg, oral	3.97
10 min, 20 mg/kg, iv	31.3
10 min, 50 mg/kg, oral	20.5
15 h, 50 mg/kg, oral	0.629
15 h, 100 mg/kg, oral	0.538
20 h, 100 mg/kg, oral	0.492
20 h, 200 mg/kg, oral	1.82
20 min, 20 mg/kg, iv	24.2
20 min, 50 mg/kg, oral	13.8
24 h, 100 mg/kg, oral	0.517
40 min, 20 mg/kg, iv	5.84
40 min, 50 mg/kg, oral	12

Conditions	concentration in plasma [µg/mL]
[2]	1.43

O=C(O)C(F)(F)C(F)(F)C(F)(F)C(F)(F)C(F)(F)C(F)(F)C(F)(F)C(F)(F)C(F)(F)F [Perfluorodecanoic acid]
Conditions	concentration in brain, [4] [ng/g]	concentration in kidney, [5] [ng/g]	concentration in liver, [3] [ng/g]
1 h, Female, Harlan Sprague Dawley	581	18100	43800
1 h, Male, Harlan Sprague Dawley	–	12400	56500
24 h, Female, Harlan Sprague Dawley	2750	46800	102000
24 h, Male, Harlan Sprague Dawley	2360	24600	107000
24 h, Male, Harlan Sprague Dawley - this seems too small	2580	29500	125000
864 h, Female, Harlan Sprague Dawley	926	18300	45900
864 h, Male, Harlan Sprague Dawley	1240	11100	56700
1848 h, Female, Harlan Sprague Dawley	526	5210	21200
1848 h, Male, Harlan Sprague Dawley	602	4000	32600
3360 h, Female, Harlan Sprague Dawley	–	2740	7920
3360 h, Male, Harlan Sprague Dawley	–	1530	9980

[1], dosed: Perfluorodecanoic acid, 2 mg/kg
Conditions	concentration in plasma [µg/mL]
0.5 h, oral, Male, Harlan Sprague Dawley	1.65
1 h, iv, Male, F344	5.65
1 h, oral, Male, Harlan Sprague Dawley	3.17
2 h, oral, Male, Harlan Sprague Dawley	3.96
5 min, iv, Female, Harlan Sprague-Dawley	7.65
5 min, iv, Male, F344	7.38
6 h, iv, Male, F344	5.65
12 h, iv, Female, Harlan Sprague-Dawley	5.32
12 h, iv, Male, F344	6.2
12 h, oral, Male, Harlan Sprague Dawley	7.68
24 h, iv, Male, F344	4.85
24 h, oral, Male, Harlan Sprague Dawley	6.97
192 h, iv, Female, Harlan Sprague-Dawley	5.74
192 h, iv, Male, F344	2.77
192 h, oral, Male, Harlan Sprague Dawley	4.85
528 h, iv, Male, F344	2.24
528 h, oral, Male, Harlan Sprague Dawley	2.64
864 h, iv, Male, F344	1.23
1200 h, iv, Female, Harlan Sprague-Dawley	2.25
1200 h, iv, Male, F344	0.719
1200 h, oral, Male, Harlan Sprague Dawley	1.7
1848 h, iv, Male, F344	0.437
1848 h, oral, Male, Harlan Sprague Dawley	0.907
2520 h, iv, Male, F344	0.124
2520 h, oral, Male, Harlan Sprague Dawley	0.687
3360 h, iv, Male, F344	0.277
3360 h, oral, Male, Harlan Sprague Dawley	0.498
